Experiments:
human CB1 receptor [1] = molecular target: T1, human CB1 receptor (Homo sapiens, UniProt P21554); assay: aequorin luminescence agonist assay, CHO-K1 cells; type: cell-based; conditions: read-out: EC50 (95% CI)
T1 construct: gene CNR1; recombinant receptor in CHO-K1 AequoScreen cells (aequorin luminescence line, Revvity ES-110-AF)
Source text: aequorin luminescence agonist assay, CHO-K1 cells on human CB1 receptor

human CB1 receptor [2] = molecular target: T1, human CB1 receptor; assay: aequorin luminescence agonist assay, CHO-K1 cells; type: cell-based; conditions: agonist mode, tested up to 60 uM; silanized plastic, glass vials; 0.05% BSA assay medium

T1 sequence (P21554 whole entry): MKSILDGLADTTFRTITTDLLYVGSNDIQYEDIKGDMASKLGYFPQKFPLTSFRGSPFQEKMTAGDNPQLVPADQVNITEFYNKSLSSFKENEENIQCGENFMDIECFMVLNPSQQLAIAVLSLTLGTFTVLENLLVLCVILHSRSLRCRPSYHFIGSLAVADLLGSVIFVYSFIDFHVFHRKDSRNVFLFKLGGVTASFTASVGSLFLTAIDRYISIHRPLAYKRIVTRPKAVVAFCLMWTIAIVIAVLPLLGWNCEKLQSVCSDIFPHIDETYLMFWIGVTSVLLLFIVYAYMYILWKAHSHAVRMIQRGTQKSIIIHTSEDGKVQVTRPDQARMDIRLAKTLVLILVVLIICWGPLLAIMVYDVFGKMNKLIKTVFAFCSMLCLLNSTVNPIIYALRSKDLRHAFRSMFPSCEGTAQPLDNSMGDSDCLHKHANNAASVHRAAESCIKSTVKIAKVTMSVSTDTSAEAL

SMILES | EC50 (human CB1 receptor [1]) [nM] | EC50 n.d. (human CB1 receptor [2])
CCCCCc1cc(OC(C)=O)c2c(c1)OC(C)(C)[C@@H]1CC[C@@H](C)C[C@@H]21 [(9R)-HHC-O] | > 33000 | 
CCCCCCCc1cc(O)c2c(c1)OC(C)(C)[C@@H]1CC[C@@H](C)C[C@@H]21 [(9R)-HHC-P] | 44.4 | 
CCCCCc1cc(O)c2c(c1)OC(C)(C)[C@@H]1CC[C@@H](C)C[C@@H]21 [(9R)-HHC] | 101 | 
CCCCCc1cc(OC(C)=O)c2c(c1)OC(C)(C)[C@@H]1CC[C@H](C)C[C@@H]21 [(9S)-HHC-O] |  | (9S)‐HHC‐O did not activate the CB1 receptor
CCCCCCCc1cc(O)c2c(c1)OC(C)(C)[C@@H]1CC[C@H](C)C[C@@H]21 [(9S)-HHC-P] | 134 | 
CCCCCc1cc(O)c2c(c1)OC(C)(C)[C@@H]1CC[C@H](C)C[C@@H]21 [(9S)-HHC] | 1190 | 
CCCCCn1cc(C(=O)c2cccc3ccccc23)c2ccccc21 [JWH-018, reference compound] | 22.5 | 

Reference: article PMC11994375, “In vitro activation of the CB1 receptor by the semi‐synthetic cannabinoids hexahydrocannabinol (HHC), hexahydrocannabinol acetate (HHC‐O) and hexahydrocannabiphorol (HHC‐P)” (Drug Testing and Analysis, 2024)
